Reference: ChEMBL document CHEMBL3301451, “MMV Malaria Box gametocyte functional viability assay screening”

Assays:
Format in all cases: functional
Design in all cases: concentration or dose not given beside the values
Plasmodium berghei = experiment: MMV: P. berghei-infected blood was withdrawn from mice by cardiac pucture before being immediately added to ookinete culture medium containing test compounds. 26 hr later, GFP-positive ookinetes were identified and counted by automated microscopy. All compounds were tested in 4 independent experiments and data presented here is the mean.
Plasmodium falciparum [1] = experiment: (§1) MMV: P. falciparum NF54 functionally mature Stage V gametocytes were incubated for 24 hr in the presence of the test compounds. Gamete formation was then triggered by addition of 2uM xantheurenic acid and temperature decrease to ~20C. Male gamete exflagellation was recorded and analysed by automated microscopy after 20 min. All compounds were tested in 4 independent experiments and data presented here is the mean.
Plasmodium falciparum [2] = experiment: as §1, with “Female” for “Male”, “formation” for “exflagellation”, “24 hr later” for “and analysed”, “detection of surface labelling of female gametes with a Cy3-conjugated antibody reactive to Pfs25.” for “after 20 min.”; details: NF54, 24 h

Structure (SMILES) | inhibition (Plasmodium berghei) | inhibition (Plasmodium falciparum [1]) | inhibition (Plasmodium falciparum [2])
COc1ccc(Nc2nc(N/N=C/c3ccc(O)cc3)nc(Nc3ccc([N+](=O)[O-])cc3)n2)cc1 | 30.88% | -4.02% | -19.8%
COc1ccc(-c2c(C)nn3c(N)c(C#N)cnc23)cc1OC | 6.903% | -13.8% | -16.8%
CSC1=NC(=Nc2c(C)cccc2C)C2(CCC(C(C)(C)C)CC2)N1c1ccc(Cl)cc1 (configuration not stated) | 10.1% | 15.7% | -11.8%
Nc1nc(Nc2cccc(F)c2)nc2ccccc12 | 16.83% | -16.2% | -41.8%
COc1ccc(/C=C2/SC(=Nc3ccccc3)NC2=O)cc1 | 15.63% | 3.39% | -46.5%
CCn1nc(-c2ccc(C(=O)OC)cc2)nc2c(=O)n(C)c(=O)nc1-2 | 17.71% | 25.3% | -15.8%
CCOc1ccccc1CN1CCc2nc3cc(C(C)(C)C)nn3c(O)c2C1 | 19.57% | 3.23% | 5.87%
O=C(NC1CCN(Cc2ccccc2)CC1)c1cc2nc(-c3ccc(Cl)s3)cc(C(F)(F)F)n2n1 | 28.86% | -4.49% | -40.5%
COc1cccc(C2(C)Nc3ccccc3-c3nc4ccccc4n32)c1 (configuration not stated) | 6.874% | -12.6% | 7.61%
O=C(NNc1cc(N2CCCC2)nc(N2CCCC2)n1)c1ccccc1 | 26.51% | 30.4% | -28.5%
COc1ccc(C2c3ccc4ccccc4c3Oc3ncn(CCCn4ccnc4)c(=N)c32)cc1OC (configuration not stated) | 36.85% | 17.5% | -9.13%
Cc1ccc(-c2cc3c(nn2)-c2ccccc2C3=O)cc1 | 22.47% | 30.4% | -20.4%
O=C1c2ccccc2-c2nnc(-c3ccc(Br)cc3)cc21 | 9.656% | 19.4% | -19.6%
Cc1ccc(Nc2nc(-c3ccccn3)cs2)cc1 | 12.18% | 16.3% | 0.787%
O=C(NCc1ccco1)C1CCN(S(=O)(=O)c2ccc(Cl)cc2)CC1 | 33.84% | 46.2% | -26.9%
COc1cc(C(=O)Nc2ccc(-c3nc4ccccc4[nH]3)cc2)cc(OC)c1OC | 21.1% | -40.5% | -25.2%
FC(F)(F)c1ccc(Nc2nnnc3ccccc23)cc1 | 36.6% | 33.7% | -30.5%
COc1cc2cc(C(=O)Nc3ccccc3)c(N)nc2cc1OC | 8.567% | 22% | -10%
O=c1nc(C=Cc2ccc(Br)cc2)oc2ccccc12 | 19.61% | 35.1% | 4.96%
CC(Oc1ccc(NC(=O)c2cccs2)cc1)C(=O)c1ccc(Cl)cc1 (configuration not stated) | 73.22% | 25.6% | -14%
Cc1sc2ncnc(Sc3nc4ccccc4[nH]3)c2c1C | 65.53% | 30.8% | -10.9%
CN(C)c1ccc(C=Cc2nc(=O)c3ccccc3o2)cc1 | 54.94% | 17.6% | -16.7%

Structure (SMILES) | inhibition (Plasmodium berghei) | inhibition (Plasmodium falciparum [1]) | inhibition (Plasmodium falciparum [2])
CCCCNc1nc(NC(C)(C)C)nc(NC(C)(C)C)n1 | 83.46% | -9.24% | -29.6%
O=C(O)C(=O)O.Oc1ccccc1CN1CCN(C(c2ccccc2)c2ccccc2)CC1 | 19.05% | 23.5% | -11.9%
OC(CNC1CCCCC1)Cn1c2ccccc2c2ccccc21 (configuration not stated) | 28.1% | 12.1% | 4.91%
COc1cccc(C=Cc2nc(=O)c3ccccc3o2)c1OC | 98.18% | -2.89% | -15.1%
COc1ccc(CCn2c(=N)c(C(=O)NCc3cccnc3)cc3c(=O)n4cccc(C)c4nc32)cc1 | 23.24% | -7.17% | -20.7%
COc1ccc(-c2cn3c(C(=O)Nc4ccccc4Cl)c(-c4ccccc4)c4c3n2CCCC4)cc1 | 15.55% | -67.8% | -34.6%
Cc1ccc(CSCc2ccc(C(=O)NC3CC3)o2)cc1 | 11.64% | 34.4% | -29.1%
O=c1cc(NC2CCN(CCCc3ccccc3)CC2)c2cc(Cl)ccc2o1 | 7.737% | -9.89% | -4.85%
COc1ccc(C=C2SC(Nc3ccc(F)cc3)=NC2=O)c(OC)c1 | 49.11% | 42.9% | -24.5%
Cc1ccc(-c2cc3nc4c(c(O)n3n2)CCCC4)cc1 | 12.06% | 22.3% | -14.6%
COc1cccc(C(=O)Nc2ccc(-c3nc4ccccc4[nH]3)cc2)c1 | 18.46% | 24% | 1.53%
CCN(Cc1ccccc1)C1CCN(Cc2cc(Br)ccc2O)CC1.O=C(O)C(=O)O | 11.31% | 7.05% | -4.68%
OCCNc1nc(Nc2ccc(Cl)c(Cl)c2)nc2ccccc12 | 17.26% | -35.4% | -25.8%
Nc1ccc(-c2nc3cc(Oc4ccc(Oc5ccc6[nH]c(-c7ccc(N)cc7)nc6c5)cc4)ccc3[nH]2)cc1 | 13.14% | 3.94% | -54.1%
CCN(CC)CCNc1ncnc2c1[nH]c1ccc(Br)cc12 | 9.06% | -106% | 13.8%
O=C(Nc1ccc(Cl)cc1)N1CCN(c2ccc3nncn3n2)CC1 | 8.279% | 25.9% | -16.6%
CC1CCN(Cc2c(O)ccc3cc(-c4nc5ccccc5s4)c(=O)oc23)CC1 | 100% | -4.49% | -24.7%
c1ccc2cc3c(Nc4ccc(N5CCOCC5)cc4)ccnc3cc2c1 | 12.53% | 13.2% | -0.0777%
Cc1c(C)n(Cc2ccc(F)cc2)c2ccc(C(=O)NCc3ccco3)cc12 | 17.74% | 49.7% | -40.2%
CCOc1cc2c(cc1OCC)C(c1cc(Cl)ccc1O)NCC2 (configuration not stated) | 9.631% | 4.54% | -14.7%
CCN(CC)c1ccc(NC(=O)c2cccs2)cc1 | 23.39% | 44.7% | -5.42%
CCCCNCC(O)(c1ccc(Cl)cc1)c1ccc(Cl)cc1 | 10.56% | 5.76% | -11%

Structure (SMILES) | inhibition (Plasmodium berghei) | inhibition (Plasmodium falciparum [1]) | inhibition (Plasmodium falciparum [2])
CC(C)(C)C(=O)Nc1ccc(C(=O)Nc2cccc(-c3nc4ccccc4[nH]3)c2)cc1 | 14.15% | 11% | -2.43%
O=C(Nc1ccc(N2CCN(Cc3ccccc3)CC2)cc1)c1cccs1.O=C(O)C(F)(F)F | 16.79% | 39.5% | 16.2%
Cc1ccc(Cn2c(N3CCC(C(=O)NCc4cccs4)CC3)nc3ccccc32)cc1 | 6.449% | 12.1% | -22.4%
O=C(Nc1ccc(Cl)cc1C(=O)Nc1ccncc1)c1ccc(Cl)cc1Cl | 36.2% | 7.46% | 9.34%
O=C1CC(O)(C(F)(F)C(F)(F)F)Oc2ccccc21 (configuration not stated) | -0.9117% |  | -15.2%
Cc1ccc(C2CC(C(F)(F)F)n3nc(C(=O)N4CCN(C(c5ccccc5)c5ccccc5)CC4)cc3N2)cc1 (configuration not stated) | 12.55% | 8.58% | -8.56%
CC(C)(C)c1ccc(C(=O)Nc2nc3ccccc3s2)cc1 | 18.69% | 26.1% | -4.04%
O=c1nc(C=Cc2ccc(Cl)cc2)oc2ccccc12 | 7% | 41% | -1.1%
O=C(NCc1ccco1)C1CCN(S(=O)(=O)c2ccc(Br)cc2)CC1 | 31.69% | 29.2% | 5.71%
Oc1c(CN2CCN(c3ccccc3F)CC2)cc(Br)c2cccnc12 | 34.85% | 5.41% | 31.5%
CCCc1c(C)nc2ccc(Br)cc2c1O | 47.59% | -14.5% | -18.5%
CCCc1c(C)nc2ccccc2c1O | 34.59% | 66.4% | 1.84%
CCOc1ccc(Nc2c3ccccc3nc3ccccc23)cc1.Cl | 63.73% | 21.7% | -9.14%
CCCCc1c(C)nc2c(OC)cccc2c1O | 20.97% | 54.7% | 0.0743%
CCCCCCc1cc2cc(-c3nc4ccccc4[nH]3)c(=Nc3ccccc3C)oc2cc1O | 23.15% | 9.8% | 5.88%
COc1ccc(C2Sc3ccccc3N=C3C2=C(O)c2ccccc23)cc1 (configuration not stated) | 68.07% | 32.2% | 0.279%
CCOc1ccc(CCNC(=O)c2cccs2)cc1OCC | 8.759% | 22% | 2.16%
CCCCCn1c(=N)n(CC(O)COc2cccc(C)c2)c2ccccc21.Cl (configuration not stated) | 6.769% | -6.7% | -30.6%
O=c1c2c([nH]c3ccccc13)CCCC2 | 6.827% | 51% | -24.5%
COc1ccccc1N1C(=N)SC(=Cc2ccc(OCc3ccccc3F)cc2)C1=O | 33.34% | 12.8% | 10.4%
c1ccc(Cn2c(N=Nc3c(Nc4ccccc4)ccc4ccccc34)nc3ccccc32)cc1 | 7.124% | -0.509% | 7.17%
C=CCc1c(C)nc2ccccc2c1O | 19.81% | 52.3% | -51.4%
